Assay results from PubChem BioAssay (NCI).
“And” between values parts separate entries of the source, which are not always exact repeats. Equal values may be shown once.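 Where inhibition never reached the appropriate level, the endpoint shown equals the highest concentration tested. Otherwise, values were interpolated linearly from a five-concentration, 48-hour dose response in 96-well plates. Here, GI50 denotes the concentration required for 50% inhibition of growth. TGI marks complete inhibition of growth.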 Where a SMILES comes first, the peptide text is derived from it.

Tests used:
Experiment in all cases: NCI tumour cell line growth inhibition, 48 h
CAKI-1 renal = test system: CAKI-1 renal
MDA-MB-435 = test system: MDA-MB-435
LOX IMVI melanoma = test system: LOX IMVI melanoma
CCRF-CEM leukemia = test system: CCRF-CEM leukemia
SK-MEL-2 melanoma = test system: SK-MEL-2 melanoma
TK-10 renal = test system: TK-10 renal
RPMI-8226 leukemia = test system: RPMI-8226 leukemia
OVCAR-4 ovarian = test system: OVCAR-4 ovarian
HT29 colon = test system: HT29 colon
A498 renal = test system: A498 renal

Structure (SMILES)	GI50 (CAKI-1 renal) [µM]	TGI (CAKI-1 renal)	GI50 (MDA-MB-435) [µM]	TGI (MDA-MB-435) [µM]	GI50 (LOX IMVI melanoma) [µM]	TGI (LOX IMVI melanoma)	GI50 (CCRF-CEM leukemia) [µM]	TGI (CCRF-CEM leukemia)	GI50 (SK-MEL-2 melanoma) [µM]	TGI (SK-MEL-2 melanoma)	GI50 (TK-10 renal) [µM]	TGI (TK-10 renal) [µM]	GI50 (RPMI-8226 leukemia) [µM]	TGI (RPMI-8226 leukemia) [µM]	GI50 (OVCAR-4 ovarian) [µM]	TGI (OVCAR-4 ovarian)	GI50 (HT29 colon) [µM]	TGI (HT29 colon)	GI50 (A498 renal) [µM]	TGI (A498 renal)
NC1=C(Cl)C(=O)c2ccc(S(N)(=O)=O)cc2C1=O	0.82	2.28 µM	0.0288	0.0743	0.0367	0.182 µM	0.374	2.77 µM	0.192	0.487 µM	1.56	2.95	0.354	2.04	0.324	1.01 µM	0.715	2.91 µM	0.507	1.3 µM
O=C(O)C1NCCc2c1[nH]c1ccccc21 (centres undefined)	> 100	> 100 µM	–	> 10	–	> 100 µM	> 100	> 100 µM	–	> 100 µM	> 100	> 100	–	> 10	> 100	> 100 µM	> 100	> 100 µM	> 100	> 100 µM
C=C1C(=O)O[C@H]2[C@H]1CC/C(COC(=O)CCCCCCCCC(=O)OC/C1=C/CC[C@@]3(C)O[C@H]3[C@H]3OC(=O)C(=C)[C@@H]3CC1)=C\CC[C@@]1(C)O[C@@H]21	–	–	2.02	4.59	1.62	3.08 µM	2.02	11.8 µM	2.8	8.2 µM	2.47	4.74	2.92	8.29	2.46	7.55 µM	2.08	4.12 µM	5.82	18 µM
c1cc(OCCN2CCCCCC2)ccc1CNc1ccc2nc(CCC3CCCCC3)[nH]c2c1	1.98	4.05 µM	1.74	3.35	1.74	3.2 µM	2.08	10.1 µM	1.88	3.63 µM	3.18	10.9	1.5	3.79	3.2	13.8 µM	1.3	3.49 µM	1.94	4.95 µM
COc1ccc(-c2cnc3ccnn3c2-c2cc(OC)c(OC)c(OC)c2)cc1	–	–	0.282	0.976	5.96	> 100 µM	3.52	> 100 µM	3.94	> 100 µM	27.3	> 100	4.14	> 100	9.69	> 100 µM	3.01	> 100 µM	0.293	4.47 µM
O=c1cc(-c2ccc(Cl)cc2)[nH]c2ncccc12	–	> 100 µM	5.96	22.4	–	> 100 µM	–	> 100 µM	–	> 100 µM	–	> 100	–	95	–	> 100 µM	–	> 100 µM	–	> 100 µM
C=C1C(=O)O[C@H]2[C@H]1CC/C(Cn1cc(Cn3ccc4ccccc43)nn1)=C\CC[C@@]1(C)O[C@@H]21	1.15	2.38 µM	1.7	3.39	1.59	3.08 µM	0.298	1.73 µM	1.73	3.96 µM	1.65	3.05	1.68	4.7	1.67	3.46 µM	1.7	3.27 µM	4.3	16.6 µM
Cc1cc(C)c(O)c(Cc2cccc(Cc3cc(C)cc(C)c3O)c2O)c1	–	> 100 µM	–	> 100	–	> 100 µM	–	> 100 µM	–	> 100 µM	–	> 100	–	> 100	–	> 100 µM	–	> 100 µM	–	> 100 µM
CCOC(=O)c1c(C)nc2ccc(Cl)cc2c1-c1ccccc1	21.1	55 µM	23.9	68.4	17.7	37.8 µM	18.8	48.9 µM	15	34.1 µM	34.4	> 100	15.9	40	20.6	66.6 µM	16.1	75.3 µM	15.5	33.4 µM
CN(C)CCCN(c1nc(C(Cl)(Cl)Cl)ns1)c1nc(C(Cl)(Cl)Cl)ns1	4.82	18.5 µM	2.05	4.54	1.58	3.01 µM	2.45	8.03 µM	1.84	3.5 µM	1.93	3.58	2.19	5.35	2.21	5.58 µM	1.69	3.37 µM	1.92	4.89 µM
COc1cc(C#N)cc(OC)c1OCCOCCOc1c(OC)cc(C#N)cc1OC	> 100	> 100 µM	> 100	> 100	> 100	> 100 µM	38.8	> 100 µM	> 100	> 100 µM	> 100	> 100	29.9	> 100	73.5	> 100 µM	> 100	> 100 µM	35.4	> 100 µM
O=C1N=C(c2ccccc2)OC1C(=O)c1ccccc1 (centres undefined)	–	> 100 µM	–	> 100	–	> 100 µM	–	> 100 µM	–	> 100 µM	–	> 100	–	> 100	–	> 100 µM	–	> 100 µM	–	> 100 µM
C=C1C(=O)O[C@@H]2C(=O)[C@@H](C)[C@@H]3C=CC(=O)[C@@]3(C)[C@@H](OC(=O)/C(C)=C\C)[C@H]12	–	0.686 µM	–	3.69	–	1.6 µM	–	2.24 µM	–	9.89 µM	–	1.74	–	1.25	–	18.2 µM	–	1.36 µM	–	3.44 µM
CC(C)CC(NC(=O)C(CC(C)C)NC(=O)C(Cc1cnc[nH]1)NC(=O)C(C)NC(=O)C(NC(=O)C(C)NC(=O)C(Cc1c[nH]c2ccccc12)NC(=O)C(CCC(=O)O)NC(=O)C(N)Cc1ccccc1)C(C)C)C(N)=O (centres undefined) (H-FEWAVAHLL-NH2; configuration not given here)	> 100	> 100 µM	–	> 12.5	–	> 12.5 µM	> 100	> 100 µM	> 100	> 100 µM	–	–	> 100	> 100	> 100	> 100 µM	> 100	> 100 µM	> 100	> 100 µM
C#CCN=C(N/N=C/c1ccc([N+](=O)[O-])o1)NS(=O)(=O)c1cc(C)c(Cl)cc1SCC(N)=O	25.7	45.1 µM	> 100	> 100	8.14	35.2 µM	22.2	57.4 µM	4.97	18.3 µM	22.2	38.3	12.8	34.5	16.5	33.3 µM	26.3	> 100 µM	17.1	32.7 µM
O=C(Nc1nccs1)c1cc2c(cc1Cl)Sc1nccn1S2(=O)=O	8.5	36.9 µM	–	31.3	10.9	25.6 µM	5.05	24.8 µM	17.4	33.1 µM	18.9	34.4	9.29	23.6	16.4	38.6 µM	19.8	46.7 µM	19.2	34.8 µM
O=C1/C(=C\C(Cl)=C/c2ccc([N+](=O)[O-])cc2)SC(=S)N1CCc1ccc(O)cc1	0.548	1.53 µM	0.552	1.95	0.187	0.387 µM	0.31	5.67 µM	2.01	4.37 µM	1.53	3.25	0.268	0.884	0.496	1.8 µM	0.429	2.28 µM	1.63	3.07 µM
Clc1cc(Cl)c(Cl)c(-c2nc(-c3cccnc3)cs2)c1	7.43	78.7 µM	3.39	29.2	16	37.6 µM	8.52	42 µM	22.1	81.9 µM	20.5	56.6	17.9	80.8	25.6	98.8 µM	12.1	> 100 µM	53.9	> 100 µM
O=C1OCc2c1cc(F)cc2[N+](=O)[O-]	> 100	> 100 µM	> 100	> 100	> 100	> 100 µM	> 100	> 100 µM	> 100	> 100 µM	–	–	> 100	> 100	> 100	> 100 µM	> 100	> 100 µM	> 100	> 100 µM
C/C(CC(=O)NNc1ccc([N+](=O)[O-])cc1)=N\Nc1ccc([N+](=O)[O-])cc1	1.93	32.2 µM	4.56	> 100	2.72	> 100 µM	4.76	> 100 µM	11	87.5 µM	13.4	35	7.91	> 100	5.92	> 100 µM	7.66	> 100 µM	7.84	47.2 µM
CCCc1cc2cc(-n3nc(C)c4c3CC(C)(C)CC4=O)cc(NC3CCC(O)CC3)c2c(=O)[nH]1 (centres undefined)	–	–	0.0812	> 100	0.116	1.07 µM	0.278	> 100 µM	0.441	> 100 µM	0.0964	> 100	0.465	14.9	> 39.6	> 100 µM	0.0308	> 100 µM	0.437	> 100 µM
CC(=O)O[C@H]1C(=O)O[C@@H]2C[C@H]3C(C)=CC(=O)[C@@H](O)[C@]3(C)[C@H]3[C@@]4(O)OC[C@]32[C@@H]1[C@@H](C)[C@H]4O	0.0752	2.36 µM and 2.13 µM	–	0.233	< 0.01	0.0642 µM and 0.442 µM	0.015	0.073 µM and 0.572 µM	0.0283	0.197 µM and 0.259 µM	–	–	< 0.0142	0.0989	0.0394	0.758 µM and 0.409 µM	0.0374	1.38 µM and 1.26 µM	0.187	1.19 µM and 0.385 µM
CCN(CC)CCOc1ccc(/C(=C(\C)Cc2ccc(OC)cc2)c2ccc(OC(=O)NCc3ccccc3)cc2)cc1	2.27	6.53 µM	1.86	3.97	1.59	3 µM	2.34	6.45 µM	2.16	4.9 µM	2.68	6.77	2.13	4.4	2.47	7.51 µM	1.89	4.29 µM	4.3	17.7 µM
COc1cc(/C=C/C(=O)c2ccc(Nc3ncnc4ccccc34)cc2)cc(OC)c1	19.3	> 100 µM	1.8	4.14	1.85	4.16 µM	4.04	22.8 µM	16.2	57.7 µM	8.4	24.4	0.227	0.715	4.28	25.2 µM	2.07	4.05 µM	5.86	> 100 µM
CN[C@]12CC3(C=CC(=O)C=C3)O[C@@]1(Cc1ccc(OC)cc1)N(C)C(=O)N2	2.69	10.2 µM	2.57	8.64	1.56	3.2 µM	1.8	3.72 µM	2.96	10.9 µM	2.48	6.72	1.63	3.32	3.89	19.1 µM	1.63	6.28 µM	16.2	31.6 µM
S=c1nc2[nH]ncc2c(N/N=C/c2ccccc2)[nH]1	31.9	> 100 µM	> 100	> 100	64	> 100 µM	78.6	> 100 µM	> 100	> 100 µM	> 100	> 100	60.6	> 100	> 100	> 100 µM	–	–	15.3	73.4 µM
